Measured values published in the supplement of paper PMC10307832.

compound: COc1cc(Nc2ncc(F)c(Nc3ccc4c(n3)NC(=O)C(C)(C)O4)n2)cc(OC)c1OC [R406] + COc1cccc2cc(-c3nc([C@H]4CC[C@H](C(=O)O)CC4)n4ncnc(N)c34)[nH]c12 [OSI-027] (partner 0.5 µM); experiment: relative viability (nuclei count vs DMSO), 5 days (fraction); higher = more cells survive; settings: first compound 8 µM
Method in brief: (§1)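 Lung cancer cell lines in 1536-well plates were dosed by pin tool the day after seeding, either with one drug alone or with a fixed anchor-drug dose plus five library-drug doses (not always all listed) in √10 steps. After 5 days, cells were fixed and their nuclei stained in one step (final 0.05% Triton X-100, 1% formaldehyde, 1 ug/ml Hoechst), then counted on 4× images. Relative viability is the nuclei count in treated wells divided by that in vehicle wells. Values are medians of duplicate plates.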

Cell Line | relative viability
COR-L23 | 0.397
COR-L 105 | 0.235
LOU-NH91 | 0.429
ChaGo-K-1 | 0.471
NCI-H1793 | 0.158
NCI-H2405 | 0.283
NCI-H1623 | 0.43
NCI-H1563 | 0.543
NCI-H1648 | 0.28

compound: COc1cc(Nc2ncc(F)c(Nc3ccc4c(n3)NC(=O)C(C)(C)O4)n2)cc(OC)c1OC [R406] + N=C(N)NC(=N)NCCc1ccccc1 [Phenformin] (partner 250 µM); experiment: as above; settings: first compound 0.08 µM
Method in brief: as §1

Cell Line | relative viability
NCI-H522 | 0.595
NCI-H2342 | 0.66
NCI-H838 | 0.569
NCI-H1650 | 0.438
NCI-H1993 | 0.503
NCI-H441 | 0.829
PC-14 | 0.602
LCLC-103H | 0.327
NCI-H596 | 0.672
NCI-H2126 | 0.527
EMC-BAC-2 | 0.516
NCI-H2085 | 0.763
HCC-366 | 0.627
NCI-H1666 | 0.542
NCI-H647 | 0.423
LK-2 | 0.385
NCI-H2087 | 0.487
NCI-H358 | 0.298
NCI-H2170 | 0.405
H3255 | 0.366
COR-L23 | 0.416
COR-L 105 | 0.495
LOU-NH91 | 0.711
ChaGo-K-1 | 0.491
NCI-H1793 | 0.312
NCI-H2405 | 0.399
A549 | 0.142
NCI-H1623 | 0.577
NCI-H1563 | 0.662

same assay, conditions: first compound 0.253 µM

Cell Line | relative viability
NCI-H522 | 0.595
NCI-H2342 | 0.623
NCI-H838 | 0.634
NCI-H1650 | 0.497
NCI-H1993 | 0.474
NCI-H441 | 0.872
PC-14 | 0.951
LCLC-103H | 0.345
NCI-H596 | 0.845
NCI-H2126 | 0.554
EMC-BAC-2 | 0.587
NCI-H2085 | 0.811
HCC-366 | 0.622
NCI-H1666 | 0.576
NCI-H647 | 0.561
LK-2 | 0.807
NCI-H2087 | 0.569
NCI-H358 | 0.3
NCI-H2170 | 0.414
COR-L23 | 0.456
COR-L 105 | 0.569
LOU-NH91 | 0.72
ChaGo-K-1 | 0.508
NCI-H1793 | 0.477
NCI-H2405 | 0.427
A549 | 0.21
NCI-H1623 | 0.624
NCI-H1563 | 0.664

same assay, conditions: first compound 0.8 µM

Cell Line | relative viability
NCI-H522 | 0.619
NCI-H2342 | 0.649
NCI-H838 | 0.727
NCI-H1650 | 0.508
NCI-H1993 | 0.525
NCI-H441 | 1.05
PC-14 | 0.746
LCLC-103H | 0.419
NCI-H596 | 0.967
NCI-H2126 | 0.516
EMC-BAC-2 | 0.616
NCI-H2085 | 0.769
HCC-366 | 0.721
NCI-H1666 | 0.59
NCI-H647 | 0.78
LK-2 | 0.428
NCI-H2087 | 0.556
NCI-H358 | 0.309
NCI-H2170 | 0.44
H3255 | 0.352
COR-L23 | 0.501
COR-L 105 | 0.602
LOU-NH91 | 0.713
ChaGo-K-1 | 0.657
NCI-H1793 | 0.546
NCI-H2405 | 0.402
A549 | 0.122
NCI-H1623 | 0.611
NCI-H1563 | 0.682

same assay, conditions: first compound 2.53 µM

Cell Line | relative viability
NCI-H522 | 0.553
NCI-H2342 | 0.525
NCI-H838 | 0.188
NCI-H1650 | 0.154
NCI-H1993 | 0.505
NCI-H441 | 0.44
PC-14 | 0.332
LCLC-103H | 0.317
NCI-H596 | 0.703
NCI-H2126 | 0.529
EMC-BAC-2 | 0.388
NCI-H2085 | 0.316
HCC-366 | 0.521
NCI-H1666 | 0.616
NCI-H647 | 0.432
LK-2 | 0.181
NCI-H358 | 0.151
NCI-H2170 | 0.316
H3255 | 0.369
COR-L23 | 0.379
COR-L 105 | 0.366
LOU-NH91 | 0.416
ChaGo-K-1 | 0.42
NCI-H1793 | 0.192
NCI-H2405 | 0.284
A549 | 0.155
NCI-H1623 | 0.585
NCI-H1563 | 0.511

same assay, conditions: first compound 8 µM

Cell Line | relative viability
NCI-H522 | 0.583
NCI-H2342 | 0.535
NCI-H838 | 0.132
NCI-H1650 | 0.146
NCI-H1993 | 0.569
NCI-H441 | 0.309
PC-14 | 0.12
LCLC-103H | 0.314
NCI-H596 | 0.281
NCI-H2126 | 0.359
